Data taken from ChEMBL document CHEMBL4706488, “Design, synthesis and biological evaluation of 2-amino-4-(1,2,4-triazol)pyridine derivatives as potent EGFR inhibitors to overcome TKI-resistance” (Eur J Med Chem, 2020).
The source made the active and inactive calls. The rule behind the calls is not given here.

Experiments:
A-431 = experiment: cells; type: functional, cell-based; conditions: Homo sapiens;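 also: antiproliferative test in A-431 cells carrying wild-type EGFR, with cell growth inhibition read by MTT assay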
Description: Antiproliferative activity against human A-431 cells harboring wild type EGFR assessed as inhibition of cell growth by MTT assay

NCI-H1975 [1] = experiment: cells; type: functional, cell-based; conditions: Homo sapiens
U-87 MG = experiment: cells; type: functional, cell-based, U-87MG ATCC; conditions: Homo sapiens;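 also: antiproliferative effect on U-87 MG cells carrying wild-type EGFR, growth inhibition read out by MTT assay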
Description: Antiproliferative activity against human U-87MG cells harboring wild type EGFR assessed as inhibition of cell growth by MTT assay

cells = type: functional, tissue-based; conditions: Homo sapiens, U87MG Human EGFR vIII
Description: Antiproliferative activity against human U87MG Human EGFR vIII cells overexpressing EGFRvIII mutant assessed as inhibition of cell growth by MTT assay

[2] = molecular target: Epidermal growth factor receptor (Homo sapiens, UniProt P00533); experiment: biochemical; type: cell-based, Sf21
Description: Inhibition of wild type N-terminal GST-tagged human EGFR cytoplasmic domain (669 to 1210 residues) expressed in baculovirus infected Sf21 cells using biotin-labeled TK substrate preincubated for 30 mins followed by substrate and ATP addition at Km concentration and further incubated for 20 mins by HTRF assay

[3] = molecular target: Epidermal growth factor receptor (Homo sapiens, UniProt P00533, L858R/T790M); experiment: biochemical; type: cell-based, Sf21
[4] = Potency index, ratio of osimertinib IC50 to test compound IC50 for antiproliferative activity against human U87MG Human EGFR vIII cells overexpressing EGFRvIII mutant assessed as inhibition of cell proliferation by MTT assay; type: functional
[5] = Potency index, ratio of lazertinib IC50 to test compound IC50 for antiproliferative activity against human U87MG Human EGFR vIII cells overexpressing EGFRvIII mutant assessed as inhibition of cell proliferation by MTT assay; type: functional
NCI-H1975 [6] = experiment: Induction of apoptosis in human NCI-H1975 cells assessed as live cells at 5 uM by annexinV-FITC/propidium iodide staining based flow cytometry analysis (reference value: 98.6 %); type: functional
NCI-H1975 [7] = experiment: Induction of apoptosis in human NCI-H1975 cells assessed as early apoptotic cells at 5 uM by annexinV-FITC/propidium iodide staining based flow cytometry analysis (reference value: 0.53 %); type: functional
NCI-H1975 [8] = experiment: Induction of apoptosis in human NCI-H1975 cells assessed as late apoptotic cells at 5 uM by annexinV-FITC/propidium iodide staining based flow cytometry analysis (reference value: 0.42 %); type: functional
NCI-H1975 [9] = experiment: Induction of apoptosis in human NCI-H1975 cells assessed as necrotic cells at 5 uM by annexinV-FITC/propidium iodide staining based flow cytometry analysis (reference value: 0.44 %); type: functional
NCI-H1975 [10] = experiment: Induction of apoptosis in human NCI-H1975 cells assessed as live cells at 10 uM by annexinV-FITC/propidium iodide staining based flow cytometry analysis (reference value: 98.6 %); type: functional
NCI-H1975 [11] = experiment: Induction of apoptosis in human NCI-H1975 cells assessed as early apoptotic cells at 10 uM by annexinV-FITC/propidium iodide staining based flow cytometry analysis (reference value: 0.53 %); type: functional
NCI-H1975 [12] = experiment: Induction of apoptosis in human NCI-H1975 cells assessed as late apoptotic cells at 10 uM by annexinV-FITC/propidium iodide staining based flow cytometry analysis (reference value: 0.42 %); type: functional
NCI-H1975 [13] = experiment: Induction of apoptosis in human NCI-H1975 cells assessed as necrotic cells at 10 uM by annexinV-FITC/propidium iodide staining based flow cytometry analysis (reference value: 0.44 %); type: functional
NCI-H1975 [14] = experiment: Induction of apoptosis in human NCI-H1975 cells assessed as live cells at 20 uM by annexinV-FITC/propidium iodide staining based flow cytometry analysis (reference value: 98.6 %); type: functional
NCI-H1975 [15] = experiment: Induction of apoptosis in human NCI-H1975 cells assessed as early apoptotic cells at 20 uM by annexinV-FITC/propidium iodide staining based flow cytometry analysis (reference value: 0.53 %); type: functional
NCI-H1975 [16] = experiment: Induction of apoptosis in human NCI-H1975 cells assessed as late apoptotic cells at 20 uM by annexinV-FITC/propidium iodide staining based flow cytometry analysis (reference value: 0.42 %); type: functional
NCI-H1975 [17] = experiment: Induction of apoptosis in human NCI-H1975 cells assessed as necrotic cells at 20 uM by annexinV-FITC/propidium iodide staining based flow cytometry analysis (reference value: 0.44 %); type: functional
U87MG Human EGFR vIII = experiment: Induction of apoptosis in human U87MG Human EGFR vIII cells by annexinV-FITC/propidium iodide staining based flow cytometry analysis; type: functional, cell-based
[18] = molecular target: ALK tyrosine kinase receptor (Homo sapiens) (UniProt Q9UM73); experiment: Inhibition of human recombinant GST-tagged ALK cytoplasmic domain (1058-1620 residues) expressed in baculovirus expression system at 1 uM by Z-lyte assay relative to control
[19] = molecular target: Aurora kinase B (Homo sapiens) (UniProt Q96GD4); experiment: Inhibition of recombinant full length human His-tagged AURKB expressed in baculovirus expression system at 1 uM by Z-lyte assay relative to control
[20] = molecular target: Serine/threonine-protein kinase B-raf (Homo sapiens) (UniProt P15056); experiment: Inhibition of recombinant full length human GST-tagged BRAF expressed in baculovirus expression system at 1 uM by Z-lyte assay relative to control
[21] = molecular target: Tyrosine-protein kinase BTK (Homo sapiens) (UniProt Q06187); experiment: Inhibition of recombinant full length human His-tagged BTK expressed in baculovirus expression system at 1 uM by Z-lyte assay relative to control
[22] = molecular target: Macrophage colony-stimulating factor 1 receptor (Homo sapiens) (UniProt P07333); experiment: Inhibition of recombinant human His-tagged CSF1R (538 to 910 residues) expressed in baculovirus expression system at 1 uM by Z-lyte assay relative to control
[23] = molecular target: Receptor tyrosine-protein kinase erbB-2 (Homo sapiens) (UniProt P04626); experiment: Inhibition of human recombinant His-tagged HER2 (676 to 1255 residues) expressed in baculovirus expression system at 1 uM by Z-lyte assay relative to control
[24] = molecular target: Receptor tyrosine-protein kinase erbB-4 (Homo sapiens) (UniProt Q15303); experiment: Inhibition of N-terminal GST-tagged human recombinant HER4 (708 to 993 residues) expressed in baculovirus expression system at 1 uM by Z-lyte assay relative to control
[25] = molecular target: Tyrosine-protein kinase Fyn (Homo sapiens) (UniProt P06241); experiment: Inhibition of recombinant full length human C-terminal His-tagged FYN expressed in baculovirus expression system at 1 uM by Z-lyte assay relative to control
[26] = molecular target: Insulin-like growth factor 1 receptor (Homo sapiens) (UniProt P08069); experiment: Inhibition of recombinant human C-terminal His-tagged IGF1R (960 to 1397 residues) expressed in baculovirus expression system at 1 uM by Z-lyte assay relative to control
[27] = molecular target: Tyrosine-protein kinase JAK2 (Homo sapiens) (UniProt O60674); experiment: Inhibition of recombinant human GST-tagged JAK2 (809 to 1162 residues) expressed in baculovirus expression system at 1 uM by Z-lyte assay relative to control
[28] = molecular target: Vascular endothelial growth factor receptor 2 (Homo sapiens) (UniProt P35968); experiment: Inhibition of recombinant human His-tagged VEGFR2 (789 to 1356 residues) expressed in baculovirus expression system at 1 uM by Z-lyte assay relative to control
[29] = molecular target: Tyrosine-protein kinase Lck (Homo sapiens) (UniProt P06239); experiment: Inhibition of recombinant human LCK at 1 uM by Z-lyte assay relative to control
[30] = molecular target: Mitogen-activated protein kinase 9 (Homo sapiens) (UniProt P45984); experiment: Inhibition of recombinant full length human His-tagged MAPK9 expressed in baculovirus expression system at 1 uM by Z-lyte assay relative to control
[31] = molecular target: Hepatocyte growth factor receptor (Homo sapiens) (UniProt P08581); experiment: Inhibition of recombinant human N-terminal His-tagged cMET (956 to 1390 residues) expressed in baculovirus expression system at 1 uM by Z-lyte assay relative to control
[32] = molecular target: BDNF/NT-3 growth factors receptor (Homo sapiens) (UniProt Q16620); experiment: Inhibition of recombinant human His-tagged NTRK2 (526 to 638 residues) expressed in baculovirus expression system at 1 uM by Z-lyte assay relative to control

Epidermal growth factor receptor (Homo sapiens, UniProt P00533), sequence (P00533 whole entry): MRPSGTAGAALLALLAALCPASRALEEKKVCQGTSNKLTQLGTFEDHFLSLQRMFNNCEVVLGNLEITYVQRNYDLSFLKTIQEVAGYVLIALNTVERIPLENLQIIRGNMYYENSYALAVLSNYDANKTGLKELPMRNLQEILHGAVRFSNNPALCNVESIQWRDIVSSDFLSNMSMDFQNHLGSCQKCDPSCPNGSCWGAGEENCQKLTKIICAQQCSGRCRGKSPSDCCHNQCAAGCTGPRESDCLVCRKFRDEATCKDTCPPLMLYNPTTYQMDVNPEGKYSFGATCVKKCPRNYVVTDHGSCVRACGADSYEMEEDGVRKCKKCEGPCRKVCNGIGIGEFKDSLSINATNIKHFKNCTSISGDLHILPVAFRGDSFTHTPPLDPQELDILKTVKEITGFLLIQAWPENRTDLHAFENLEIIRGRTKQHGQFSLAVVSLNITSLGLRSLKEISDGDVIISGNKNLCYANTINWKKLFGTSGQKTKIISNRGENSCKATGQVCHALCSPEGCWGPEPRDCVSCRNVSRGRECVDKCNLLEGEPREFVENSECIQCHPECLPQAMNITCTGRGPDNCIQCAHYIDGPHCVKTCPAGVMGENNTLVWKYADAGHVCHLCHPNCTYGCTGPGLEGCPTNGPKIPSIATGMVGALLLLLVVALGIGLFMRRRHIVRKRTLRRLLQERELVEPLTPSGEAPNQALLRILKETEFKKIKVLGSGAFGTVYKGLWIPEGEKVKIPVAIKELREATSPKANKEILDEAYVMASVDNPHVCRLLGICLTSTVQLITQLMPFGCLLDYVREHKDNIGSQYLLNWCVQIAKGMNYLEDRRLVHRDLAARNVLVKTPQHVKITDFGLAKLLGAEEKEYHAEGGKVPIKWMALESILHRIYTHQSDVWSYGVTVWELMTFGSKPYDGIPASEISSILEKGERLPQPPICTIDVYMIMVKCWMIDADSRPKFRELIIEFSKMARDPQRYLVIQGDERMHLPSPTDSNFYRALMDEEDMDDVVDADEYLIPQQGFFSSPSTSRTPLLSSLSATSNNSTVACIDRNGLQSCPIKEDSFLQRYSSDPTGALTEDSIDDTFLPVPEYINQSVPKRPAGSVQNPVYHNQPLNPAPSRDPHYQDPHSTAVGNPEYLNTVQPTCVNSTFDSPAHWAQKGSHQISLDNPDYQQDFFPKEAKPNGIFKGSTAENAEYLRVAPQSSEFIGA
Epidermal growth factor receptor (Homo sapiens, UniProt P00533, L858R/T790M), sequence (P00533 25-1210 T790M/L858R limits assumed): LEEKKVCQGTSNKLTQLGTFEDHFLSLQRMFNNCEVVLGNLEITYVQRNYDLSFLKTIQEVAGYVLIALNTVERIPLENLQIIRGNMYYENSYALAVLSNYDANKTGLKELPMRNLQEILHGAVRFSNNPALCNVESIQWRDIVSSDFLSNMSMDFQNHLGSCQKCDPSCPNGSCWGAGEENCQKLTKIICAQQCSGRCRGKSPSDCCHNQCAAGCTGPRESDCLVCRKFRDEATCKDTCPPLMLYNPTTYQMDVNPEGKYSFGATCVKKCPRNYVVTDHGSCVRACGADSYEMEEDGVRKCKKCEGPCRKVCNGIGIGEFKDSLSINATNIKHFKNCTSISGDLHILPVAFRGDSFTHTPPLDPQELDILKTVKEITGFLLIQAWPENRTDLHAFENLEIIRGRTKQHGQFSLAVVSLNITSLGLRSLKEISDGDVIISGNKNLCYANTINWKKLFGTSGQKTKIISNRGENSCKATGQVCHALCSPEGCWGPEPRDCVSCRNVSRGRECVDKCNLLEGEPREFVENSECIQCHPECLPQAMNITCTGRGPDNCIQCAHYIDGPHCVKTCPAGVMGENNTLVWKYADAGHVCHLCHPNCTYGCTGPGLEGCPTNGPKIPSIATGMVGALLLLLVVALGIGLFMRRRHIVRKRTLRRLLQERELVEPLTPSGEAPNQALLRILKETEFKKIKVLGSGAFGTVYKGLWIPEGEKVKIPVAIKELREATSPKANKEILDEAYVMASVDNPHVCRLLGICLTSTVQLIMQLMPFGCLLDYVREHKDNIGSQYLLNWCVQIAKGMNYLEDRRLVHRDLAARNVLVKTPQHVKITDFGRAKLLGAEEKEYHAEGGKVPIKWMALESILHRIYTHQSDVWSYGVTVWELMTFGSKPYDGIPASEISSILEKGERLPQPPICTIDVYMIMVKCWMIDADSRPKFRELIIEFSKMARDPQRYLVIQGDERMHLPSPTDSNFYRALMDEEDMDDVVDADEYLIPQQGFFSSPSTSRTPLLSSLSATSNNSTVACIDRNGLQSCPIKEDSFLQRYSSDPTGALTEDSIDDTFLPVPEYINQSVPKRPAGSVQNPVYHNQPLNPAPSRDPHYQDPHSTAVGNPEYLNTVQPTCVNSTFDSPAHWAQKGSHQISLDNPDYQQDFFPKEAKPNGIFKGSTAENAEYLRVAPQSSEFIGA
ALK tyrosine kinase receptor (Homo sapiens), sequence (Q9UM73 19-1620 limits assumed): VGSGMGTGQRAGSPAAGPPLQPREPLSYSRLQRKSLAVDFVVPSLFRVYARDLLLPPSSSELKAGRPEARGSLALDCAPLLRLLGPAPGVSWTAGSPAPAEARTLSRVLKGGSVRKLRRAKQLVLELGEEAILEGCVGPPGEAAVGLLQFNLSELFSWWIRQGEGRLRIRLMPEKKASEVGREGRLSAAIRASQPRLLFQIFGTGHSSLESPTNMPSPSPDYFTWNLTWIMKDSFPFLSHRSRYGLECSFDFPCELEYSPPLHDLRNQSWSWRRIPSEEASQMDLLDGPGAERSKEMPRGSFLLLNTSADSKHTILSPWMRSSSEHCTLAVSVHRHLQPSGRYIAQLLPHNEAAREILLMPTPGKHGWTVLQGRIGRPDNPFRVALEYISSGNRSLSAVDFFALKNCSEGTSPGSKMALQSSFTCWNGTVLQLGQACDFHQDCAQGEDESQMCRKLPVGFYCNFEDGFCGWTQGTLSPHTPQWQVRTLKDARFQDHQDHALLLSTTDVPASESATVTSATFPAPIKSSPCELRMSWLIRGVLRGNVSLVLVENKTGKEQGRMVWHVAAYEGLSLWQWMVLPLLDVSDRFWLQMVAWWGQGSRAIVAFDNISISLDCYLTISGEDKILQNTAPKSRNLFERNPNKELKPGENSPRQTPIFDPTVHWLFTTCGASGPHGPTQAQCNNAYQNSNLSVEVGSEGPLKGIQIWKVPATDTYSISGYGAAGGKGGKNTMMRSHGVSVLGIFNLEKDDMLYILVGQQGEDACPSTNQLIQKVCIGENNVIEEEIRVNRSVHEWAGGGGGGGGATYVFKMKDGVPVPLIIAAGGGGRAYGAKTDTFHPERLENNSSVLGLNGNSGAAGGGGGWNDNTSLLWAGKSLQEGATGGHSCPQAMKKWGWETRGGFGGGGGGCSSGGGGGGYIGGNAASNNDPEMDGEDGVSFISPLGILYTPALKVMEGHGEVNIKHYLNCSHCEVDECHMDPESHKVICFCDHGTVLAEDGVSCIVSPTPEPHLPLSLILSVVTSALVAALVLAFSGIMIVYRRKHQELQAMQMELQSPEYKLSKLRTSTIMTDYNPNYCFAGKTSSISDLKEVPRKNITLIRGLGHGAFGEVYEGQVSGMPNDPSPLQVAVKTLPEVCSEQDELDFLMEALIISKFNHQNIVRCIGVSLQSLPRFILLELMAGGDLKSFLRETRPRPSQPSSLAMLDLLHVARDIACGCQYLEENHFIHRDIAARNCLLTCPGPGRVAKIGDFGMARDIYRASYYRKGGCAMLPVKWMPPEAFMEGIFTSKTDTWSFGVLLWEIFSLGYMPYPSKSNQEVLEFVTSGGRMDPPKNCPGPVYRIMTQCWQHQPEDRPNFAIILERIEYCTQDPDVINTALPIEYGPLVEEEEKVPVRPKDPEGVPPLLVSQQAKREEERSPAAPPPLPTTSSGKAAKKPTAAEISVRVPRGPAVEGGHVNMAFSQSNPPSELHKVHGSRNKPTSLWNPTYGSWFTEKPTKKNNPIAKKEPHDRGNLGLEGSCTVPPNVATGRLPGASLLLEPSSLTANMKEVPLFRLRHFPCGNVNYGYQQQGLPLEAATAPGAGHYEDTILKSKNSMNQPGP
Aurora kinase B (Homo sapiens), sequence (Q96GD4 whole entry): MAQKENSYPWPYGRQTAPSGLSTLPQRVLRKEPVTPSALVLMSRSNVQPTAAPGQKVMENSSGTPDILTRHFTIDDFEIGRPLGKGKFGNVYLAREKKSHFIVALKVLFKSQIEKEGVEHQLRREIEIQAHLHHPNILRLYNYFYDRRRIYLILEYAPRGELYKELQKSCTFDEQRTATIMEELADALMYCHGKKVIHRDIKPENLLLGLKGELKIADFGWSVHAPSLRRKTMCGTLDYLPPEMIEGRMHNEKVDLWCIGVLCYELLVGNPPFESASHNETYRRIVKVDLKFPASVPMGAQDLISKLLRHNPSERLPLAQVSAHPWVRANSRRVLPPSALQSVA
Mitogen-activated protein kinase 9 (Homo sapiens), sequence (P45984 whole entry, looked up, the tested form may be a part): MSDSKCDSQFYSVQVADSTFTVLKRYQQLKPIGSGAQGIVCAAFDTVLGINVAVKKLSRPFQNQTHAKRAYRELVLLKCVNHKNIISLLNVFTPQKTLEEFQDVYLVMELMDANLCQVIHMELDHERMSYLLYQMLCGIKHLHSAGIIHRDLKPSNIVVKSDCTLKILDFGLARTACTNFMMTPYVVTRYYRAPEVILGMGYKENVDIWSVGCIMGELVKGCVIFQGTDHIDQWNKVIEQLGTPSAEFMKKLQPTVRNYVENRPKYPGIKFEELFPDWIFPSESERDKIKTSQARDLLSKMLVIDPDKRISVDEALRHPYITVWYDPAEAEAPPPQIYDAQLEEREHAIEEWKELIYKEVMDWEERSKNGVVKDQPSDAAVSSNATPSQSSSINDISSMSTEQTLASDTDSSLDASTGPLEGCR

Question: For `C=CC(=O)Nc1cccc(Nc2cc(-n3c(C)nnc3-c3ccc(F)cc3)ccn2)c1`, which IC50 (A-431) is on record?
Answer: 12.2 µM

Question: And the IC50 (NCI-H1975 [1])?
Answer: 21.4 µM

Question: And the IC50 (U-87 MG)?
Answer: 51.6 µM

Question: And the IC50 (cells)?
Answer: 37.8 µM

Question: Which results are given for `C=CC(=O)Nc1cc(Nc2cc(-n3c(SC)nnc3-c3ccc(F)cc3)ccn2)ccc1N(C)CCN(C)C`?
Answer: IC50 [2]: 0.156 µM; IC50 [3]: 0.213 µM; IC50 (A-431): 6 µM; IC50 (NCI-H1975 [1]): 5.3 µM; IC50 (U-87 MG): 2.4 µM; IC50 (cells): 4.1 µM; Ratio IC50 [4]: 3; Ratio IC50 [5]: 25; Activity (NCI-H1975 [6]): 93.8%; Activity (NCI-H1975 [7]): 2.52%; Activity (NCI-H1975 [8]): 2.77%; Activity (NCI-H1975 [9]): 0.92%; Activity (NCI-H1975 [10]): 91.4%; Activity (NCI-H1975 [11]): 2.63%; Activity (NCI-H1975 [12]): 3.86%; Activity (NCI-H1975 [13]): 2.14%; Activity (NCI-H1975 [14]): 32.3%; Activity (NCI-H1975 [15]): 18%; Activity (NCI-H1975 [16]): 39%; Activity (NCI-H1975 [17]): 10.7%; Activity (U87MG Human EGFR vIII): inactive

Question: Which IC50 [2] does the source give for `C=CC(=O)Nc1cc(Nc2cc(-n3c(SC)nnc3-c3ccc(F)cc3)ccn2)c(OC)cc1N1CCCN(C)CC1` here?
Answer: 0.333 µM

Question: What about the IC50 [3] of the same molecule?
Answer: 0.156 µM

Question: What about the IC50 (A-431) of the same molecule?
Answer: 10.3 µM

Question: And the IC50 (NCI-H1975 [1])?
Answer: 8.1 µM

Question: And the IC50 (U-87 MG)?
Answer: 6.97 µM

Question: And the IC50 (cells)?
Answer: 43.6 µM

Question: Which IC50 (A-431) does the source give for `C=CC(=O)Nc1cc(Nc2cc(-n3c(SC)nnc3-c3ccc(F)cc3)ccn2)c(OC)cc1N1CCN(C2CCN(C)CC2)CC1` here?
Answer: 9.9 µM

Question: What about the IC50 (NCI-H1975 [1]) of the same molecule?
Answer: 14.9 µM

Question: And the IC50 (U-87 MG)?
Answer: 6.49 µM

Question: What about the IC50 (cells) of the same molecule?
Answer: 25.5 µM

Question: For `C=CC(=O)Nc1cc(Nc2nccc(-n3cc(CN(C)C)c(-c4ccccc4)n3)n2)c(OC)cc1N1CCOCC1` [LAZERTINIB], which IC50 [2] is on record?
Answer: 0.0346 µM

Question: And the IC50 [3]?
Answer: 0.0027 µM

Question: What about the IC50 (A-431) of the same molecule?
Answer: 3.6 µM

Question: And the IC50 (NCI-H1975 [1])?
Answer: < 1 µM

Question: And the IC50 (U-87 MG)?
Answer: 33.2 µM

Question: And the IC50 (cells)?
Answer: > 100 µM

Question: For `C=CC(=O)Nc1cc(Nc2cc(-n3c(SC)nnc3-c3ccc(F)cc3)ccn2)c(OC)cc1N1CCC(N2CCOCC2)CC1`, which IC50 [3] is on record?
Answer: 0.112 µM

Question: And the IC50 (A-431)?
Answer: 7 µM

Question: And the IC50 (NCI-H1975 [1])?
Answer: 16.7 µM

Question: What about the IC50 (U-87 MG) of the same molecule?
Answer: 15.2 µM

Question: And the IC50 (cells)?
Answer: 20.2 µM

Question: With `C=CC(=O)Nc1cccc(Nc2cc(-n3c(CCCO)nnc3-c3ccc(F)cc3)ccn2)c1` as the molecule, how does the IC50 [2] read?
Answer: 0.196 µM

Question: What about the IC50 [3] of the same molecule?
Answer: 0.143 µM

Question: And the IC50 (A-431)?
Answer: 65.9 µM

Question: And the IC50 (NCI-H1975 [1])?
Answer: > 100 µM

Question: What about the IC50 (U-87 MG) of the same molecule?
Answer: 21.7 µM

Question: What about the IC50 (cells) of the same molecule?
Answer: > 100 µM

Question: What does the source list for `C=CC(=O)Nc1cc(Nc2cc(-n3c(SC)nnc3-c3ccc(F)cc3)ccn2)c(OC)cc1N(C)CCN(C)C`?
Answer: IC50 [2]: 0.0893 µM; IC50 [3]: 0.0431 µM; IC50 (A-431): 4 µM; IC50 (NCI-H1975 [1]): 5.4 µM; IC50 (U-87 MG): 2.8 µM; IC50 (cells): 18 µM; inhibition [18]: 10%; inhibition [19]: 13%; inhibition [20]: -7%; inhibition [21]: 4%; inhibition [22]: 12%; inhibition [23]: 16%; inhibition [24]: 76%; inhibition [25]: 5%; inhibition [26]: 10%; inhibition [27]: 12%; Activity (NCI-H1975 [6]): 97.2%; inhibition [28]: 18%; inhibition [29]: 11%; inhibition [30]: 7%; inhibition [31]: 9%; inhibition [32]: 17%; Activity (NCI-H1975 [7]): 1.28%; Activity (NCI-H1975 [8]): 1.1%; Activity (NCI-H1975 [9]): 0.44%; Activity (NCI-H1975 [10]): 95.5%; Activity (NCI-H1975 [11]): 1.69%; Activity (NCI-H1975 [12]): 1.87%; Activity (NCI-H1975 [13]): 0.91%; Activity (NCI-H1975 [14]): 84%; Activity (NCI-H1975 [15]): 4.83%; Activity (NCI-H1975 [16]): 7.14%; Activity (NCI-H1975 [17]): 3.99%; Activity (U87MG Human EGFR vIII): inactive

Question: Which IC50 (A-431) does the source give for `C=CC(=O)Nc1cc(Nc2cc(-n3c(SC)nnc3-c3ccc(F)cc3)ccn2)c(OC)cc1N1CCC(N(C)C)CC1` here?
Answer: 11.4 µM

Question: And the IC50 (NCI-H1975 [1])?
Answer: 13.2 µM

Question: And the IC50 (U-87 MG)?
Answer: 8.42 µM

Question: And the IC50 (cells)?
Answer: 39.7 µM
